Results on 22 molecules are retold here after patent publication US20100120775A1, “Farnesoid X Receptor Agonists” (SMITHKLINE BEECHAM CORPORATION, priority 2006, published 2010).

The structures appear in SMILES notation.

In one assay the target is T1, Human FXRα Ligand Binding Domain (Homo sapiens, UniProt Q96RI1).
T1 construct: polyhistidine (pRSET-A vector) (N); made in house; host or cells: E. coli BL21 (DE3), pRSET-A vector
T1 sequence (Q96RI1 237-472 isoform Q96RI1-2): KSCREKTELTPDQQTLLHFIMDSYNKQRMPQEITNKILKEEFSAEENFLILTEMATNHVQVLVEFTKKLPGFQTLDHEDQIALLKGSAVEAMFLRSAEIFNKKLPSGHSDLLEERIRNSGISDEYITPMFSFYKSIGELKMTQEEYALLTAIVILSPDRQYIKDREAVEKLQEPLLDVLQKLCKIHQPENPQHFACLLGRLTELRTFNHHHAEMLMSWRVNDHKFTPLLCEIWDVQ
Briefly: FXR Cofactor Binding Assay (FXR LBD / SRC-1 peptide, time resolved fluorescence). The note with it: FXRα LBD with biotinylated SRC-1 (LCD2, 676-700) peptide. From the text:
Determination of a ligand mediated cofactor peptide interaction to quantify ligand binding to the nuclear receptor Farnesoid X Receptor (FXR). The method measures the ability of putative ligands to modulate the interaction between the purified bacterial expressed FXRα ligand binding domain (LBD) and a synthetic biotinylated peptide based on residues 676-700 of steroid receptor coactivator-1 (SRC-1) (LXXLL-containing domain-2 where L is the amino acid leucine and X indicates any other amino acid (LCD2), 676-700). The sequence of the SRC-1 peptide used is as published in Iannone, M. A., et al., 2001 Cytometry 44:326-337 where the N-terminus was biotinylated (B) and the C-terminus was amidated. Detection of the associated complex was measured by time resolved fluorescence (TRF). The purified LBD of FXR was labeled with biotin then mixed with stoichiometric amounts of allophycocyanin (APC) labeled streptavidin (Molecular Probes). The biotinylated peptide was then mixed with a ½ stoichiometric amount of europium labeled streptavidin (Wallac Inc). Each was then blocked with a 5 fold excess of biotin and allowed to equilibrate for 15 min. Equimolar amounts of receptor and peptide were mixed together and were allowed to equilibrate for at least 30 min prior to the addition to either a variable or constant concentrations of the sample for which the affinity is to be determined. After equilibration, the time-resolved fluorescent signal was quantitated using a fluorescent plate reader. The affinity of the test compound was estimated from a plot of fluorescence versus concentration of test compound added.
A basal level of FXR: peptide formation is observed in the absence of added ligand. Ligands that promote the complex formation induce a concentration-dependent increase in time-resolved fluorescent signal. Compounds which bind equally well to both monomeric FXR and to the FXR: peptide complex would be expected to give no change in signal, whereas ligands which bind preferentially to the monomeric receptor would be expected to induce a concentration-dependent decrease in the observed signal.
Human FXRα Ligand Binding Domain (FXRα LBD) was expressed in E. coli strain BL21 (DE3) as an amino-terminal polyhistidine tagged fusion protein. Expression was under the control of an isopropyl-13-D-thiogalactopyranoside (IPTG) inducible T7 promoter. DNA encoding this recombinant protein is subcloned into the pRSET-A expression vector (Invitrogen). The coding sequence of Human FXRα LBD was derived from Genbank accession number U 68233 (amino acids 237 to 472).
Routinely, 30-40 g cell paste (equivalent to 2-3 liters of the fermentation batch) was resuspended in 200-250 mL Tris buffered saline (TBS), pH 7.2 (25 mM Tris-hydroxymethylamino methane (Tris), 150 mM sodium chloride). Cells were lysed by passing 3 times through a French Press and cell debris was removed by centrifugation (30 minutes, 20,000×gravity, 4° C.). The cleared supernatant was filtered through course pre-filters, and TBS, pH 7.2, 500 mM imidazole was added to obtain a final imidazole concentration of 50 mM. This lysate was loaded onto a column (6×8 cm) packed with Sepharose [Ni^|| charged]Chelation resin (Pharmacia) and pre-equilibrated with TBS pH 7.2/50 mM imidazole. After washing to baseline absorbance with equilibration buffer, the column was washed with one column volume of TBS pH 7.2 containing 90 mM imidazole. FXRα LBD was eluted directly with 365 mM imidazole. Column fractions were pooled and dialyzed against TBS, pH 7.2, containing 0.5 mM EDTA and 5 mM DTT. The dialyzed protein sample was concentrated using Centri-prep 10 K (Amicon) and subjected to size exclusion, using a column (3×90 cm) packed with Sepharose S-75 resin (Pharmacia) pre-equilibrated with TBS, pH 7.2, containing 0.5 mM ethylene diamine tetraacetic acid (EDTA) and 5 mM dithiothreitol (DTT). […]
For `CC(C)c1onc(-c2c(Cl)cccc2Cl)c1COc1ccc(-c2ccc3nc(C(=O)O)ccc3c2)cc1` [Example 1i, Sodium 6-[4-({[3-(2,6-dichlorophenyl)-5-(1-methylethyl)-4-isoxazolyl]methyl}oxy)phenyl]-2-quinolinecarboxylate], the “Activity (pEC50)” value is “++ (++ indicates a pEC50 6-6.99)”.

As for `CC(C)c1onc(-c2c(Cl)cccc2Cl)c1COc1ccc(-c2ccc3nc(C(=O)O)ccc3c2)cc1` [Example 1h, Potassium 6-[4-({[3-(2,6-Dichlorophenyl)-5-(1-methylethyl)-4-isoxazolyl]methyl}oxy)phenyl]-2-quinolinecarboxylic Acid], the “Activity (pEC50)” value is recorded as “++ (++ indicates a pEC50 6-6.99)”.

The assay is the same for the next values; noted with them: FXRα LBD with biotinylated SRC-1 (LCD2, 676-700) peptide, read-out: Activity (pEC50) (converted).
`Cc1cc(-c2ccc3nc(C(=O)O)ccc3c2)ccc1OCc1c(-c2c(Cl)cccc2Cl)noc1C(C)C` [Example 32, 6-[4-({[3-(2,6-Dichlorophenyl)-5-(1-methylethyl)-4-isoxazolyl]methyl}oxy)-3-methylphenyl]-2-quinolinecarboxylic acid]: the EC50 was 0.102 to 1 µM.

Consider `CC(C)c1onc(CSc2c(Cl)cccc2Cl)c1COc1ccc(-c2ccc3nc(C(=O)O)ccc3c2)cc1` [Example 22, 6-[4-({[3-{[(2,6-Dichlorophenyl)thio]methyl}-5-(1-methylethyl)-4-isoxazolyl]methyl}oxy)phenyl]-2-quinolinecarboxylic acid], for which the EC50 is 0.102 to 1 µM.

As for `O=C(O)c1ccc2cc(-c3ccc(OCc4c(-c5c(Cl)cccc5Cl)noc4C4CCC4)cc3)ccc2n1` [Example 7, 6-[4-({[5-Cyclobutyl-3-(2,6-dichlorophenyl)-4-isoxazolyl]methyl}oxy)phenyl]-2-quinolinecarboxylic acid], the EC50 was 0.102 to 1 µM.

In the case of `CC[C@H](C)c1onc(-c2c(Cl)cccc2Cl)c1COc1ccc(-c2ccc3nc(C(=O)O)ccc3c2)cc1` [Example 13, 6-{4-[({3-(2,6-Dichlorophenyl)-5-[(1S)-1-methylpropyl]-4-isoxazolyl}methyl)oxy]phenyl}-2-quinolinecarboxylic acid], the EC50 is 0.102 to 1 µM.

With `O=C(O)c1ccc2cc(-c3ccc(OCc4c(C5CCCC5)noc4C4CCCC4)cc3)ccc2n1` [Example 26, 6-(4-{[(3,5-Dicyclopentyl-4-isoxazolyl)methyl]oxy}phenyl)-2-quinolinecarboxylic acid], the EC50 was 0.102 to 1 µM.

On to `O=C(O)c1ccc2cc(-c3ccc(OCc4c(-c5c(Cl)cccc5Cl)noc4C4CC4)cc3)ccc2n1` [Example 11, 6-[4-({[5-Cyclopropyl-3-(2,6-dichlorophenyl)-4-isoxazolyl]methyl}oxy)phenyl]-2-quinolinecarboxylic acid], for which the EC50 was 0.102 to 1 µM.

Consider `O=C(O)c1ccc2cc(-c3ccc(OCc4c(-c5c(Cl)cncc5Cl)noc4C4CCC4)cc3)ccc2n1` [Example 8], for which the EC50 was 0.102 to 1 µM.

`O=C(O)c1cc2ccc(-c3ccc(OCc4c(-c5c(Cl)cccc5Cl)noc4C4CC4)cc3)cc2cn1` [Example 10, 7-[4-({[5-Cyclopropyl-3-(2,6-dichlorophenyl)-4-isoxazolyl]methyl}oxy)phenyl]-3-isoquinolinecarboxylic acid]: the EC50 was 0.102 to 1 µM.

Turning to `Cc1nc2ccc(-c3ccc(OCc4c(-c5c(Cl)cccc5Cl)noc4C(C)C)cc3)cc2cc1C(=O)O` [Example 35, 6-[4-({[3-(2,6-Dichlorophenyl)-5-(1-methylethyl)-4-isoxazolyl]methyl}oxy)phenyl]-2-methyl-3-quinolinecarboxylic acid], the EC50 is 0.102 to 1 µM.

With `Cc1cc2cc(-c3ccc(OCc4c(-c5c(Cl)cccc5Cl)noc4C(C)C)cc3)ccc2nc1C(=O)O` [Example 31, 6-[4-({[3-(2,6-dichlorophenyl)-5-(1-methylethyl)-4-isoxazolyl]methyl}oxy)phenyl]-3-methyl-2-quinolinecarboxylic acid], the EC50 is 0.102 to 1 µM.

In the case of `Cc1cccc(C)c1OCc1noc(C(C)C)c1COc1ccc(-c2ccc3nc(C(=O)O)ccc3c2)cc1` [Example 18, 6-[4-({[3-{[(2,6-Dimethylphenyl)oxy]methyl}-5-(1-methylethyl)-4-isoxazolyl]methyl}oxy)phenyl]-2-quinolinecarboxylic acid], the EC50 was 0.102 to 1 µM.

Turning to `CC(C)c1onc(C[S+]([O-])c2c(Cl)cccc2Cl)c1COc1ccc(-c2ccc3nc(C(=O)O)ccc3c2)cc1` (stereo not shown) [Example 23, 6-[4-({[3-{[(2,6-Dichlorophenyl)sulfinyl]methyl}-5-(1-methylethyl)-4-isoxazolyl]methyl}oxy)phenyl]-2-quinolinecarboxylic acid], the EC50 is 0.102 to 1 µM.

As to `CC(C)c1onc(-c2c(Cl)cccc2Cl)c1COc1ccc(-c2ccc3nc(C(=O)O)ccc3c2)cc1` [Example 1g, 6-[4-({[3-(2,6-Dichlorophenyl)-5-(1-methylethyl)-4-isoxazolyl]methyl}oxy)phenyl]-2-quinolinecarboxylic acid], the EC50 is 0.102 to 1 µM.

With `CC(C)c1onc(-c2c(Cl)cccc2Cl)c1COc1ccc(-c2ccc3c(C(=O)O)cc(C(=O)O)nc3c2)cc1` [Example 3, 7-[4-({[3-(2,6-Dichlorophenyl)-5-(1-methylethyl)-4-isoxazolyl]methyl}oxy)phenyl]-2,4-quinolinedicarboxylic acid], the EC50 is 0.102 to 1 µM.

As to `CC(C)c1onc(-c2c(Cl)cccc2Cl)c1CSc1ccc(-c2ccc3nc(C(=O)O)ccc3c2)cc1` [Example 38, 6-[4-({[3-(2,6-Dichlorophenyl)-5-(1-methylethyl)-4-isoxazolyl]methyl}thio)phenyl]-2-quinolinecarboxylic acid], the EC50 is 0.102 to 1 µM.

Turning to `CC(C)c1onc(-c2c(Cl)cccc2Cl)c1COc1ccc(-c2ccc3cc(C(=O)O)cnc3c2)cc1` [Example 2, 7-[4-({[3-(2,6-Dichlorophenyl)-5-(1-methylethyl)-4-isoxazolyl]methyl}oxy)phenyl]-3-quinolinecarboxylic acid], the EC50 was 0.102 to 1 µM.

Regarding `CC(C)c1onc(-c2c(Cl)cccc2Cl)c1COc1ccc(-c2ccc3c(C(=O)O)nccc3c2)cc1` [Example 36, 6-[4-({[3-(2,6-Dichlorophenyl)-5-(1-methylethyl)-4-isoxazolyl]methyl}oxy)phenyl]-1-isoquinolinecarboxylic acid], the EC50 is 0.102 to 1 µM.

`CC(C)c1onc(CS(=O)(=O)c2c(Cl)cccc2Cl)c1COc1ccc(-c2ccc3nc(C(=O)O)ccc3c2)cc1` [Example 24, 6-[4-({[3-{[(2,6-Dichlorophenyl)sulfonyl]methyl}-5-(1-methylethyl)-4-isoxazolyl]methyl}oxy)phenyl]-2-quinolinecarboxylic acid]: the EC50 is 1.02 to 10 µM.

As to `Cc1nc(C(=O)O)nc2ccc(-c3ccc(OCc4c(-c5c(Cl)cccc5Cl)noc4C(C)C)cc3)cc12` [Example 37, 6-[4-({[3-(2,6-Dichlorophenyl)-5-(1-methylethyl)-4-isoxazolyl]methyl}oxy)phenyl]-4-methyl-2-quinazolinecarboxylic acid], the EC50 is 0.102 to 1 µM.

Turning to `CC(C)c1onc(-c2c(Cl)cccc2Cl)c1COc1ccc(-c2ccc3c(C(=O)O)ccnc3c2)cc1` [Example 4, 7-[4-({[3-(2,6-Dichlorophenyl)-5-(1-methylethyl)-4-isoxazolyl]methyl}oxy)phenyl]-4-quinolinecarboxylic acid], the EC50 is 0.102 to 1 µM.
